Measured values published in patent US11623931B2, “Bicyclic compounds for diagnosis and therapy” (AC IMMUNE SA, priority 2016, dated 2023).

Legend:
Parameters in all cases: key: − (No); +/− (very weak); + (weak); ++ (good); +++ (strong)
[1] = molecular target: T1, aSyn aggregates on PD sections (Homo sapiens, UniProt P37840); assay: Assay 1 (fluorescence based assay): direct staining of human Parkinson's disease brain sections; assay type: binding; conditions: staining intensity; compound 100 μM, frozen amygdala sections, PD Braak stage V-VI
T1 construct: 20 μm frozen sections from amygdala were purchased from an external provider (Tissue Solutions Ltd.); tissue Tissue Solutions Ltd; host or cells: human PD amygdala, frozen sections, Braak stage V-VI
Source text: Assay 1 (Fluorescence Based Assay):
(§1) Direct Staining of Compounds of this Invention to Human Parkinson's Disease Brain Sections
(§2) 20 μm frozen sections from amygdala were purchased from an external provider (Tissue Solutions Ltd.). Donors were diagnosed with PD, Braak stage V-VI (Braak et al., Neurobiol. Aging, 2003, 24, 197-211) and thus with confirmed aSyn pathology. PD donors, Braak stage V-VI with mixed pathology, containing aSyn aggregates as well as Aβ plaques, were also used in this assay. Sections were kept at −80° C. until start of the experiment.
(§3) Brain sections were encircled with pap pen liquid blocker to reduce the volume of solution for the different incubations. Sections were fixed for 15 min at 4° C. with 4% paraformaldehyde and washed three times for 5 minutes with PBS (phosphate buffered saline) at room temperature. Test compounds were incubated on the sections at 100 μM in 50% ethanol in water for 30 min at room temperature, followed by three washes of 5 minutes with PBS. Sections were then saturated and permeabilized in blocking buffer (PBS, 10% NGS, 0.25% Triton) for 1 hour at room temperature and then incubated for 2 hours at room temperature with the primary antibodies against aSyn: aSyn-211 (SantaCruz Biotechnology sc-12767) or aSyn-pS129 (Abcam AB51253), and primary antibody against AR, 4G8, (Covance, SIG-39220). All primary antibodies diluted 1/250 in PBS, 5% NGS, 0.25% Triton. After three washes in PBS, the sections were incubated for 30 minutes at room temperature with a secondary anti-mouse antibody labeled with AlexaFluor555 (Invitrogen A21422) or anti-rabbit antibody labeled with AlexaFluor555 (Invitrogen A21428) and further washed three times in PBS. To reduce auto-fluorescence of the tissue, the sections were incubated in a solution of 0.1% Sudan Black (Sigma 199664) in 70% ethanol for 15 min at room temperature, followed by four washes with PBS and mounted under cover slips using ProLong Gold Antifade reagent (Invitrogen P36930).
(§4) Sections were analyzed on the Nikon Eclipse Ti microscope to detect staining and imaged using Nikon DS-Fi2 camera and NIS-Element AR4.13.1 software.

[2] = test system: Aβ plaques on AD sections; assay: Assay 1 (fluorescence based assay): direct staining of human Alzheimer's disease brain sections; assay type: binding; conditions: staining intensity; compound 100 μM, frozen amygdala sections, AD Braak stage V-VI
Experimental: Direct Staining of Compounds of this Invention to Human Alzheimer's Disease Brain Sections 20 μm frozen sections from amygdala were purchased from an external provider (Tissue Solutions Ltd.). Donors were diagnosed with AD, Braak stage V-VI (Braak et al., Neurobiol. Aging, 1995, 16, 271-284) and thus with confirmed Aβ pathology. Sections were kept at −80° C. until start of the experiment. Brain sections were encircled with pap pen liquid blocker to reduce the volume of solution for the different incubations. Sections were fixed for 15 min at 4° C. with 4% paraformaldehyde and washed three times for 5 minutes with PBS at room temperature. Test compounds were incubated on the sections at 100 μM in 50% ethanol in water for 30 min at room temperature, followed by three washes of 5 minutes with PBS. Sections were then saturated and permeabilized in blocking buffer (PBS, 10% NGS, 0.25% Triton) for 1 hour at room temperature and then incubated for 2 hours at room temperature with the primary antibodies against AR, 4G8, (Covance, SIG-39220), diluted 1/250 in PBS, 5% NGS, and 0.25% Triton. After three washes in PBS, the sections were incubated for 30 minutes at room temperature with a secondary anti-mouse antibody labeled with AlexaFluor555 (Invitrogen A21422) and further washed three times in PBS. To reduce auto-fluorescence of the tissue, the sections were incubated in a solution of 0.1% Sudan Black (Sigma 199664) in 70% ethanol for 15 min at room temperature, followed by four washes with PBS and mounted under cover slips using ProLong Gold Antifade reagent (Invitrogen P36930). Sections were analyzed on the Nikon Eclipse Ti microscope to detect staining and imaged using Nikon DS-Fi2 camera and NIS-Element AR4.13.1 software.

[3] = test system: Aβ plaques on PD sections with mixed pathology; assay: Assay 1 (fluorescence based assay): direct staining of PD brain sections with mixed pathology; assay type: binding, human; conditions: staining intensity; compound 100 μM, frozen amygdala sections, PD Braak stage V-VI with aSyn aggregates and Aβ plaques
Experimental: as §1, §2, §3, §4

Staining of aSyn aggregates on PD sections [1]	Compound	Staining of Aβ plaques on AD sections [2]	Staining of Aβ plaques on PD sections with mixed pathology [3]
++	FCCNc1ccc(-c2ccc3cc(-c4cccnc4)sc3n2)cn1 [Example 56]	++	
++	CN(CCF)c1ccc(-c2ccc3cc(-c4cccnc4)sc3n2)cn1 [Example 57]	+	
+	FCCOc1ccc(-c2cc3ccc(Nc4ccc5c(c4)OCCO5)nc3s2)cc1 [Example 58]	++	
+	FCCOc1cccc(Nc2ccc3cc(-c4cccnc4)sc3n2)c1 [Example 59]	+	
++	FCCOc1ccc(Nc2ccc3cc(-c4cccnc4)sc3n2)cc1 [Example 63]	++	
+	c1cncc(-c2cc3ccc(Nc4ccc5c(c4)OCCO5)nc3s2)c1 [Example 64]	+++	
+	c1cncc(-c2cc3ccc(Nc4ccc(N5CCOCC5)cc4)nc3s2)c1 [Example 65]	+++	
+	c1cncc(-c2cc3ccc(Nc4ccc(N5CCOCC5)nc4)nc3s2)c1 [Example 66]	++	
+	FCCOC1CCN(c2ccc3cc(-c4cccnc4)sc3n2)CC1 [Example 67]	+	
+	FCCOC1CCN(c2cc3nc(-c4ccc(N5CCCC5)nc4)sc3cn2)CC1 [Example 68]	−	
++	CN1CCN(c2ccc3nc(-c4ccc(N5CCCC5)nc4)sc3c2)C(=O)C1 [Example 69]	+	
+	CN1CCN(c2ccc3nc(-c4ccc(N5CC[C@@H](F)C5)nc4)sc3c2)C(=O)C1 [Example 70]	+	
+	CN1CCN(c2ccc3nc(-c4ccc(N5CC[C@H](F)C5)nc4)sc3c2)C(=O)C1 [Example 71]	−	
+++	O=C1COCCN1c1ccc2nc(-c3ccc(N4CC[C@@H](F)C4)nc3)sc2c1 [Example 72]	+	
++	O=C1COCCN1c1ccc2nc(-c3ccc(N4CC[C@H](F)C4)nc3)sc2c1 [Example 73]	+	
+	CNc1ccc(-c2cc3ccc(Nc4ccc(OCCF)cc4)nc3s2)cc1 [Example 74]	+++	
++	CNc1ccc(-c2cc3ccc(Nc4ccc5c(c4)OCCO5)nc3s2)cc1 [Example 75]	+++	
+	CNc1ccc(-c2cc3ccc(Nc4ccc(N5CCOCC5)cc4)nc3s2)cc1 [Example 76]	+++	
++	COc1ccc(C#Cc2ccc3cc(-c4cccnc4)sc3n2)cc1 [Example 77]	++	
+	O=C1c2sc(-c3ccc(N4CCCC4)nc3)nc2CCN1CCF [Example 78]	+	

Staining of aSyn aggregates on PD sections [1]	Compound	Staining of Aβ plaques on AD sections [2]	Staining of Aβ plaques on PD sections with mixed pathology [3]
+	FCCn1cc(-c2cc3nc(-c4ccc(N5CCCC5)nc4)sc3cn2)cn1 [Example 79]	+	
+++	O=C1c2sc(-c3ccc(N4CCCC4)nc3)nc2CCN1c1cccnc1 [Example 80]	++	
+++	F[C@H]1CCCN(c2ccc(-c3nc4nc(-c5cn[nH]c5)ccc4s3)cn2)C1 [Example 83]		−
++	Cn1cc(-c2ccc3sc(-c4ccc(N5CCC[C@H](F)C5)nc4)nc3n2)cn1 [Example 84]		+/−
+++	Fc1nc(N2CCCC2)ccc1-c1nc2nc(-c3cn[nH]c3)ccc2s1 [Example 85]		−
++	Cn1cc(-c2ccc3sc(-c4ccc(N5CCCC5)nc4F)nc3n2)cn1 [Example 86]		−
++	Fc1nc(N2CCCC2)ccc1-c1nc2nc(-c3cccnc3)ccc2s1 [Example 87]		−
+++	Cc1n[nH]c(C)c1-c1ccc2sc(-c3ccc(N4CCCC4)nc3F)nc2n1 [Example 88]		−
++	c1cncc(-c2ccc3sc(-c4ccc(N5CCCC5)nc4)nc3n2)c1 [Example 89]		−
++	F[C@@H]1CCN(c2ccc(-c3nc4nc(-c5cccnc5)ccc4s3)cn2)C1 [Example 90]		−
++	F[C@H]1CCN(c2ccc(-c3nc4nc(-c5cccnc5)ccc4s3)cn2)C1 [Example 91]		−
+++	Cn1cncc1-c1ccc2sc(-c3ccc(N4CCCC4)nc3F)nc2n1 [Example 94]		−
++	Fc1nc(N2CCCC2)ccc1-c1nc2nc(-c3cnc[nH]3)ccc2s1 [Example 95]		−
++	Fc1nc(N2CCCC2)ccc1-c1nc2nc(-c3cc[nH]c3)ccc2s1 [Example 96]		+/−
+	Cn1nccc1-c1ccc2sc(-c3ccc(N4CCCC4)nc3F)nc2n1 [Example 97]		+/−
+	F[C@H]1CCCN(c2ccc(-c3nc4nc(-c5cncs5)ccc4s3)cn2)C1 [Example 98]		+/−
++	F[C@@H]1CCCN(c2ccc(-c3nc4nc(-c5cncs5)ccc4s3)cn2)C1 [Example 99]		+/−
++	F[C@@H]1CCCN(c2ccc(-c3nc4ncc(-c5cccnc5)cc4s3)cn2)C1 [Example 100]		++
++	O=C1COCCN1c1ccc2nc(-c3ccc(N4CCC[C@@H](F)C4)nc3)sc2c1 [Example 126]	++	
++	O=C1COCCN1c1ccc2nc(-c3ccc(N4CCC[C@H](F)C4)nc3)sc2c1 [Example 127]	+	
